Measurements reported in publication PMC8667944 (Journal of Enzyme Inhibition and Medicinal Chemistry, 2021).
Where two headings read alike, the source gives them in different places.

Target: T1, NgCA (Neisseria gonorrhoeae, UniProt Q50940)
T1 construct: gene cah; recombinant enzyme obtained in-house
T1 sequence (Q50940 27-252): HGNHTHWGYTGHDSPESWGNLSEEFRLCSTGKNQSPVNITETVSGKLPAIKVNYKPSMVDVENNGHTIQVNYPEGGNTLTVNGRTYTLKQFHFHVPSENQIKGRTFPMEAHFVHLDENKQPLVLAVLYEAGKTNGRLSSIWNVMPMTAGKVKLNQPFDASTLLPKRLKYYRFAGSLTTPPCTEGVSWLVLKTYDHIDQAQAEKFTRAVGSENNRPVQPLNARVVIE
Assay: stopped-flow CO2 hydration assay
Format: biochemical

| Compound | Ki (read-out: Ki (nM)^a / NgCA) [nM] | Ki [nM] |
| --- | --- | --- |
| CC(C)(C)OC(=O)NC1CCCN(C(=S)S)C1 (stereo not drawn) [compound 6, 6] | 538 |  |
| CN(Cc1ccccc1)C(=S)S [compound 24, 24] | 654 |  |
| S=C(S)N1CCNCC1 [compound 28, 28] |  | 276 |
| O=C(O)C1COCCN1C(=S)S (stereo not drawn) [compound 18, 18] | 672 |  |
| S=C(S)NC1CN2CCC1CC2 (racemic) [compound 12, 12] | 482 |  |
| OCCCNC(=S)S [compound 5, 5] | 413 |  |
| CCCCN(CC)C(=S)S [compound 27, 27] | 577 |  |
| S=C(S)N1CCN(C(=S)S)CC1 [compound 29, 29] | 136 |  |
| O=C(O)[C@H]1CCCN(C(=S)S)C1 [compound 14, 14] | 335 |  |
| CC1COCCN1C(=S)S (stereo not drawn) [compound 19, 19] | 723 |  |
| O=C(O)[C@@H]1CCCN(C(=S)S)C1 [compound 13, 13] | 242 |  |
| S=C(S)NCCc1ccccc1 [compound 2, 2] | 259 |  |
| S=C(S)N1CCCCC1 [compound 17, 17] |  | 731 |
| NS(=O)(=O)c1ccc(CCNC(=S)S)cc1 [compound 1, 1] | 83.7 |  |
| O=C(O)C1CCCCN1C(=S)S (stereo not drawn) [compound 7, 7] | 827 |  |
| CC(=O)NC1CCCN(C(=S)S)C1 (stereo not drawn) [compound 15, 15] | 451 |  |
| OC1CCCN(C(=S)S)C1 (stereo not drawn) [compound 10, 10] | 367 |  |
| CC(C)CN(CC(C)C)C(=S)S [compound 22, 22] | 554 |  |
| N#CC1(c2ccccc2)CCN(C(=S)S)CC1 [compound 30, 30] | 365 |  |
| CN(C)CCNC(=S)S [compound 3, 3] | 568 |  |
| O=C(CN1CCN(C(=S)S)CC1)NC1CCCCC1 [compound 20, 20] | 84.4 |  |
| O=C(O)C1CCCN(C(=S)S)C1 (racemic) [compound 9, 9] | 297 |  |
| O=C(O)C1CCN(C(=S)S)CC1 [compound 8, 8] | 514 |  |
| OCCCCCNC(=S)S [compound 21, 21] | 454 |  |
| S=C(S)N[C@H]1CN2CCC1CC2 [compound 16, 16] | 518 |  |
| S=C(S)N[C@@H]1CN2CCC1CC2 [compound 11, 11] | 473 |  |
| CCCN(CCC)C(=S)S [compound 26, 26] | 522 |  |
| CCCCN(CCCC)C(=S)S [compound 25, 25] | 460 |  |
| OCCCCNC(=S)S [compound 4, 4] | 438 |  |
| S=C(S)N1CCOCC1 [compound 23, 23] | 483 |  |
